Data on one compound can be found in patent US20160030391A1, “METHODS AND COMPOSITIONS FOR IMPROVING COGNITIVE FUNCTION” (THE JOHNS HOPKINS UNIVERSITY, priority 2013, published 2016).

Assay [1] relates to entorhinal cortex of aMCI subjects. Description: fMRI activity in entorhinal cortex during lure stimuli correctly identified as similar. The assay is classed as in vivo, human. As to conditions: levetiracetam 125 mg twice a day for two weeks vs placebo. An excerpt: As described above, the drug treatment period is the two weeks preceding Visit 1 or 2 (with the two week period preceding the other Visit being the placebo phase). […] Imaging data are obtained through high-resolution methods developed in the Stark laboratory. Data are collected on a Phillips 3 Tesla scanner (Eindhoven, The Netherlands) equipped with an 8-channel SENSE (Sensitivity Encoding) head coil, located at the F.M. Kirby Research Center for Functional Brain Imaging at the Kennedy Krieger Institute (Baltimore, Md.). High-resolution echo-planar images are collected using an acquisition matrix of 64×64, a repetition time of 1500 milliseconds, an echo time of 30 milliseconds, a […] of 70 degrees, a SENSE factor of 2, and an isotropic resolution of 1.5 mm×1.5 mm x 1.5 mm with no gap. Nineteen oblique slices are acquired parallel to the principal longitudinal axis of the hippocampus and covered the entire medial temporal lobe region bilaterally. […] Group data are analyzed using a two-way Analysis of Variance (ANOVA) with trial types and group as fixed factors, and subject as a random factor nested within group. […] The activity of the subject's medial temporal lobe is measured by functional MRI during the subject's participation in an explicit 3-alternative forced choice task, where participants view novel, repeated and similar (“lure”) stimuli. […]

A further assay concerns aMCI subjects. Description: Buschke Selective Reminding Test - Delayed Recall. The assay is classed as in vivo, human. As to conditions: levetiracetam 125 mg twice a day for two weeks.
Assay [2] deals with Age-Impaired (AI) Long-Evans rats. As to the kind of experiment: Morris Water Maze retention trial, levetiracetam in aged-impaired rats. Type of assay: in vivo, rat. How it is done:
The MWM apparatus consists of a large, circular pool (diameter 1.83 m; height, 0.58 m) filled with water (27° C.) that is made opaque through the addition of non-toxic pigment or some other substance. In the typical “hidden platform” version of the test, rats are trained to find a camouflaged white escape platform (height, 34.5 cm) that is positioned in the center of one quadrant of the maze about 1.0 cm below the water surface. This platform can be retracted to the bottom of the tank or raised to its normal position from outside the maze during behavioral testing. The location of the platform remains constant from trial to trial. Because there are no local cues that mark the position of the platform, the rat's ability to locate it efficiently from any starting position at the perimeter of the pool depends on using information surrounding the maze. The maze is surrounded by black curtains to which white patterns are affixed to provide a configuration of spatial cues. A second platform (height 37.5 cm), with its surface painted black is elevated 2 cm above the water surface during cue training to control for factors unrelated to cognition. The behavior of a rat in the pool is recorded by a camera that is suspended 2.5 m above the center of the pool. The camera is connected to a video tracking system (HVS Image Advanced Tracker VP200) and a PC computer running HVS software developed by Richard Baker of HVS Image, Hampton, UK. The MWM protocol is optimized for sensitivity to the effects of aging on cognition and for measures of reliable individual differences within the aged population of out-bred Long-Evans rats (Gallagher et al. Behav. Neurosci. 107:618-626, (1993)). Rats receive three trials per day for 8 consecutive days, using a 60 sec inter-trial interval. On each training trial, the rat is released into the maze from one of four equally spaced starting positions around the perimeter of the pool. […] At the completion of the protocol using the hidden platform, rats are assessed for cue learning using the visible platform. […]

Take `CC[C@@H](C(N)=O)N1CCCC1=O` [levetiracetam, (2S)-2-(2-oxopyrrolidin-1-yl)butanamide]: the “EC activity during memory judgments (fMRI)” value in assay [1] was “increases EC activity”. The “performance in Buschke Selective Reminding Test—Delayed Recall” value with aMCI subjects was “fail to rescue performance”. For the same compound, the “time spent in the target quadrant (performance vs vehicle)” value in assay [2] (levetiracetam 5 mg/kg/day i.p., retention trial 24 hours after two training days) was “did not significantly improve”. Also, in assay [2] (levetiracetam 10 mg/kg/day i.p., retention trial), the “time spent in the target annulus” value is given as “effectiveness of the 10 mg/kg/day levetiracetam treatment was also seen”. The “time spent in the target quadrant, percentage of total swimming time” value in assay [2] (levetiracetam 10 mg/kg/day i.p., retention trial 24 hours after two training days) was “approximately 35%”.
